Series [1] relates to target gene SOD1. Kind of series: Test Example 4: lipid conjugated siRNA sequences with different carbon chain lengths, SOD1 in mouse brain, lateral ventricle administration. It counts as in vivo, C57BL/6j mice. Set-up: Right hemisphere Mean value of inhibition rate / Left hemisphere Mean value of inhibition rate: unit not given here. Conditions: D5; for inhibitory activity compared with the vector-free siRNA sequence RX599002: left and right hemisphere, lateral ventricle 150 μg per mouse; for Left hemisphere Mean value of inhibition rate: left hemisphere (non-administration side); for Left hemisphere Mean value of inhibition rate / Right hemisphere Mean value of inhibition rate: lateral ventricle; for Left hemisphere Mean value of inhibition rate / activity compared with Uhd conjugated reference sequence RZ899093 and NM200 (C22) conjugated reference sequence RZ899076 / Right hemisphere Mean value of inhibition rate: 150 μg per mouse; for activity compared with Uhd conjugated reference sequence RZ899093 and NM200 (C22) conjugated reference sequence RZ899076: right hemisphere (administration side) and left hemisphere (non-administration side); for Right hemisphere Mean value of inhibition rate: right hemisphere (administration side). The method, then:
6-8 Week-old C57BL/6j mice were randomly grouped by body weight. Mice in each group were administered with siRNA by lateral ventricle administration, with an administration dose per mouse depending on a specific test. Taking Bregma in mouse brain as point 0 (origin), coordinates of right ventricle were found using the cerebral stereotaxic apparatus and position was marked on surface of skull (position of lateral ventricle was AP (anteroposterior, bregma anterior and posterior): −0.58 mm, ML (mediolateral, left and right of middle raphe): −1.2 mm, DV (dorsoventral, up and down cerebral dura mater plane): −2.2 mm). A dental electric drill was used to drill in the skull above a position of interest, and then medicament was injected into the lateral ventricle by a micro-dosing pump, wherein a total injection volume was 5 μL, and injection duration was 10 min. Needle was retained for 5 min after completion of injection, and then slowly withdrawn. Afterwards, needle hole was sealed with biomedical glue, and then head skin was adhered. After animals woke up, the animals were returned back to animal house and further fed. PBS control group was administered with the same volume of siRNA-free PBS solution. The day of administration was recorded as 0 day (D0), and the mice were sacrificed at observation point after the administration. Different parts of brain region were respectively taken and stored in the RNAlater.
(§1) RNA extraction: the above tissue samples were taken out from the RNAlater, and smashed for 60 s in Tissuelyser type II full-automatic tissue homogenizer, and total RNAs of various tissue samples were extracted using the full-automatic nucleic acid extraction instrument and the nucleic acid extraction kit from Zhejiang Hanwei Science and Technology Co. Ltd. according to methods described in instructions.
(§2) Reverse transcription reaction: 1 μg of the extracted total RNAs of the tissue samples were taken, and configured into 20 μL of reverse transcription system according to a method described in kit instructions by using a reverse transcription kit (Reverse Transcription System, A3500) from Promega Corporation and selecting Oligo (dT)15 reverse transcription primers, and the reverse transcription reaction was completed. After the reaction was ended, 80 μL of RNase-Free water was added into the reverse transcription system to provide cDNA solution for Real-time PCR detection.
(§3) Real-time PCR detection: 20 μL of Real-time PCR reaction system per PCR detection well was configured according to a method described in kit instructions using SYBR™ Select Master Mix (Catalog number: 4472908) reagent from ABI company. Each detection system contained 5 μL of cDNA template obtained from the above reverse transcription reaction, 10 μL of SYBR™ Select Master Mix, 0.5 μL of 10 μM upstream primers, 0.5 μL of 10 μM downstream primers, and 4 μL of RNase-Free H2O. The configured reaction system was subjected to Real-time PCR amplification on ABI StepOnePlus PCR instrument by a three-step method, wherein an amplification procedure was pre-denaturation at 95° C. for 10 min, then denaturation at 95° C. for 30 s, annealing at 60° C. for 30 s, and extension at 72° C. for 30 s; and processes of denaturation, annealing, and extension were repeated for 40 cycles. Gene expression differences were calculated by the ΔΔCt method after completion of the procedure.
In the real-time fluorescence quantitative PCR method, relative quantitative calculation of remaining expression level and inhibition rate of gene mRNA of interest in various test groups was performed by the ΔΔCt method, and the calculation method is as follows: […]

Series [2] has as its system target gene SOD1. Kind of series: Test Example 6: inhibitory activity of NM073, NM074 conjugated siRNA sequences on SOD1 by intrathecal administration to rats. Conditions: D28; for Cerebellum % Mean value of inhibition rate / Cortex % Mean value of inhibition rate / Hippocampus % Mean value of inhibition rate / Cervical segment % Mean value of inhibition rate / Lumbar segment % Mean value of inhibition rate / Thoracic segment % Mean value of inhibition rate: intrathecal, 900 μg per rat; for Cortex % Mean value of inhibition rate: cerebral cortex; for level of inhibition on the target gene compared with the Uhd control conjugate (RZ899093): intrathecal 900 μg per rat; for Cervical segment % Mean value of inhibition rate: spinal cord cervical segment; for Lumbar segment % Mean value of inhibition rate: spinal cord lumbar segment; for Thoracic segment % Mean value of inhibition rate: spinal cord thoracic segment. It is filed as in vivo, SD rats. The method, then: 6-8 Week-old SD rats were randomly grouped by body weight. Rats in each group were administered with siRNA by intrathecal administration, with an administration dose of 900 μg per rat. Injection was administered from rat spinal cord L5-L6, with an administration volume of 40 μL. Needle was retained for 2 min after completion of injection, and then slowly withdrawn. PBS control group was administered with the same volume of siRNA conjugate-free PBS solution. The day of administration was recorded as 0 day (D0), and the rats were sacrificed at observation point after administration. Different segments of spinal cord and different regions of brain were respectively taken and stored in the RNAlater.
as §1, §2, §3
(§4) In the real-time fluorescence quantitative PCR method, relative quantitative calculation of remaining expression level and inhibition rate of gene mRNA of interest in various test groups was performed by the ΔΔCt method, and the calculation method is as follows:
The present test example evaluated, by an evaluation method for inhibitory activity on a target gene by intrathecal administration to rats, the inhibitory activity of siRNA sequence RZ899090 with the NM073 conjugation at Position 4, siRNA sequence RZ899091 with the NM074 conjugation at Position 4 and siRNA control sequence RZ899093 with the Uhd conjugation on the target gene SOD1 of interest in spinal cord and brain of rats. The above conjugation vectors were different in that NM073 was C18 aliphatic chain and NM074 was C20 aliphatic chain.
6-8 Week-old SD rats were randomly grouped by body weight, 5 per group, 4 groups in total. Rats in each group were dosed with the above siRNA conjugates by intrathecal administration, with an administration dose of 900 μg per rat, and an administration volume of 40 μL. PBS control group was administered with the same volume of siRNA conjugate-free PBS solution. The day of administration was recorded as D0, and the rats were sacrificed on D28 after administration. […]

Series [3] has as its system target gene SOD1. Kind of series: Test Example 8: inhibitory activity on target gene SOD1 in adipose tissues in different parts of mice. It is filed as in vivo, C57BL/6j mice. As to conditions: D14; for Subcutaneous fat % Mean value of inhibition rate: abdominal subcutaneous fat; for Subcutaneous fat % Mean value of inhibition rate / Brown fat on back % Mean value of inhibition rate / Paragonadal fat % Mean value of inhibition rate: tail vein injection 5 mg/kg; for inhibitory activity compared with the NM200 conjugated reference sequence RZ899076: paragonadal fat and brown fat on back; for inhibitory activity compared with the NM200 conjugated reference sequence RZ899076 / inhibitory action on the target gene compared with RZ899076: tail vein 5 mg/kg; for inhibitory action on the target gene compared with RZ899076: subcutaneous fat. The method, then:
as §1, §2, §3, §4
The present test example evaluated, by an evaluation method for inhibitory activity on a target gene in mice, the inhibitory activity of siRNA sequence RZ899090 with the sense strand with the NM073 conjugation at Position 4, siRNA sequence RZ899091 with the sense strand with the NM074 conjugation at Position 4, siRNA sequence RZ899078 with the sense strand with the NM202 conjugation at Position 6 and siRNA reference sequence RZ899093 with the sense strand with the Uhd conjugation at Position 4, siRNA reference sequence RZ899076 with the sense strand with the NM200 conjugation at Position 4 on the target gene SOD1 in adipose tissues of interest in mice.
6-8 Week-old C57BL/6j mice were randomly grouped by body weight, 5 per group, 6 groups in total. Mice in each group were dosed with the above siRNA conjugates by tail vein injection, with an administration dose of 5 mg/kg per mouse, and an administration volume of 150 μL. PBS control group was administered with the same volume of siRNA conjugate-free PBS solution. The day of administration was recorded as D0, and 5 mice in each group were sacrificed on D14 after administration. Paragonadal fat, abdominal subcutaneous fat, and brown fat on back were respectively taken. RNA extraction, reverse transcription, and real-time fluorescence quantitative detection were performed on various tissues according to the above method, and gene expression differences were calculated by the above ΔΔCt method.

With “RZ899090: siRNA sequence with the sense strand with the NM073 (C18) conjugation at Position 4; SEQ ID NO: 15 / 23 (sense UUUNAAUCCUCACUCUAAA; antisense UUUAGAGUGAGGAUUAAAAUG; NM073 (C18) conjugate at sense position 4; modified_base 1..2 OTHER; 2'-methoxy and 5'-thiophosphate modified nucleotides; modified_base 3 OTHER; 2'-methoxy modified nucleotide; modified_base 4 OTHER; n is the nucleotide analog NM073 as described in the disclosure.; modified_base 5..6 OTHER; 2'-methoxy modified nucleotides; modified_base 7..10 OTHER; 2'-fluoro modified nucleotides; modified_base 11..19 OTHER; modified_base 1 OTHER; 2'-methoxy and 5'-thiovinylphosphonate modified nucleotide; modified_base 2 OTHER; 2'-fluoro and 5'-thiophosphate modified nucleotide; modified_base 3..5 OTHER; …)”, in the series with target gene SOD1 [1], the “inhibitory activity compared with the vector-free siRNA sequence RX599002” value is “superior inhibitory activity”; the “Left hemisphere Mean value of inhibition rate” value is 67.87; the “activity compared with Uhd conjugated reference sequence RZ899093 and NM200 (C22) conjugated reference sequence RZ899076” value is “substantially comparable or superior activity”; the “Right hemisphere Mean value of inhibition rate” value was 78.49. Moreover, in the series on target gene SOD1 [2], the “Cerebellum % Mean value of inhibition rate” value worked out at 56.97%; the “Cortex % Mean value of inhibition rate” value was −15.00%; the “Hippocampus % Mean value of inhibition rate” value amounted to 35.35%; the “level of inhibition on the target gene compared with the Uhd control conjugate (RZ899093)” value is “comparable level of inhibition in the spinal cord segment and cerebellum”. In the series on target gene SOD1 [2], the “Cervical segment % Mean value of inhibition rate” value came to 69.98%, the “Lumbar segment % Mean value of inhibition rate” value came out at 93.93% and the “Thoracic segment % Mean value of inhibition rate” value amounted to 94.17%. In the series with target gene SOD1 [3], the “Subcutaneous fat % Mean value of inhibition rate” value is 71.07%, the “Brown fat on back % Mean value of inhibition rate” value stood at 81.60%, the “inhibitory activity compared with the NM200 conjugated reference sequence RZ899076” value is on record as “equivalent or superior inhibitory activity” and the “Paragonadal fat % Mean value of inhibition rate” value is 67.09%. The “inhibitory action on the target gene compared with RZ899076” value in the series with target gene SOD1 [3] is given as “substantially comparable”.

On to “RZ899091: siRNA sequence with the sense strand with the NM074 (C20) conjugation at Position 4; SEQ ID NO: 16 / 23 (sense UUUNAAUCCUCACUCUAAA; antisense UUUAGAGUGAGGAUUAAAAUG; NM074 (C20) conjugate at sense position 4; modified_base 1..2 OTHER; 2'-methoxy and 5'-thiophosphate modified nucleotides; modified_base 3 OTHER; 2'-methoxy modified nucleotide; modified_base 4 OTHER; n is the synthetic nucleotide analog NM074 as described in the disclosure.; modified_base 5..6 OTHER; 2'-methoxy modified nucleotides; modified_base 7..10 OTHER; 2'-fluoro modified nucleotides; modified_base 11..19 OTHER; 2'-methoxy modified ; modified_base 1 OTHER; 2'-methoxy and 5'-thiovinylphosphonate modified nucleotide; modified_base 2 OTHER; 2'-fluoro and 5'-thiophosphate modified …)”, for which, in the series with target gene SOD1 [1], the “inhibitory activity compared with the vector-free siRNA sequence RX599002” value is “superior inhibitory activity”; the “Left hemisphere Mean value of inhibition rate” value is on record as 70.41; the “activity compared with Uhd conjugated reference sequence RZ899093 and NM200 (C22) conjugated reference sequence RZ899076” value is given as “substantially comparable or superior activity”; the “Right hemisphere Mean value of inhibition rate” value is recorded as 82.32. Moreover, in the series with target gene SOD1 [2], the “Cerebellum % Mean value of inhibition rate” value amounted to 73.86%; the “Cortex % Mean value of inhibition rate” value is listed as 28.78%; the “Hippocampus % Mean value of inhibition rate” value is listed as 70.69%; the “level of inhibition on the target gene compared with the Uhd control conjugate (RZ899093)” value was “superior level of inhibition on the target gene in the spinal cord segment, cerebellum, and hippocampus”. Further, in the series on target gene SOD1 [2], the “Cervical segment % Mean value of inhibition rate” value was 92.15%, the “Lumbar segment % Mean value of inhibition rate” value came out at 95.17% and the “Thoracic segment % Mean value of inhibition rate” value is listed as 98.15%. For the same substance, in the series on target gene SOD1 [3], the “Subcutaneous fat % Mean value of inhibition rate” value stood at 67.17%, the “Brown fat on back % Mean value of inhibition rate” value was 80.97%, the “inhibitory activity compared with the NM200 conjugated reference sequence RZ899076” value is recorded as “equivalent or superior inhibitory activity” and the “Paragonadal fat % Mean value of inhibition rate” value was 75.20%. The “inhibitory action on the target gene compared with RZ899076” value in the series on target gene SOD1 [3] was “substantially comparable”.

(Values after patent US20260132165A1, “MODIFIED NUCLEOSIDE ANALOGUE AND USE THEREOF, AND NUCLEOSIDE ANALOGUE-CONTAINING DOUBLE-STRANDED OLIGONUCLEOTIDE AND USE THEREOF” (RIGERNA THERAPEUTICS (BEIJING) CO., LTD., priority 2023, published 2026).)
